{"source": "patent US20230085307A1", "about": "“PYRIDAZINONE COMPOUND AND HERBICIDE” (NISSAN CHEMICAL CORPORATION, priority 2019, published 2023)", "key": {"barnyard grass [1]": {"tested_on": "barnyard grass", "experiment": "Test Example 3: herbicidal effect by foliage application, Wagner pot (Table 18, symbol H)", "format": "in vivo, barnyard grass (Echinochloa crus-galli)", "settings": "320 g/ha", "summary_of_the_method": "(§1)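 Plants were sown in alluvial soil held under 0.1–0.5 cm standing water and grown 14 days in a greenhouse at 25–30 °C. An emulsifiable formulation, water-diluted to the set dose, was then sprayed onto the foliage, and effects were scored three weeks later using previously defined criteria.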"}, "Chinese sprangletop": {"tested_on": "Chinese sprangletop", "experiment": "Test Example 3: herbicidal effect by foliage application, Wagner pot (Table 18, symbol D)", "format": "in vivo, chinese sprangletop (Leptochloa chinensis)", "settings": "320 g/ha", "summary_of_the_method": "as §1"}, "rice flat sedge": {"tested_on": "rice flat sedge", "experiment": "Test Example 3: herbicidal effect by foliage application, Wagner pot (Table 18, symbol E)", "format": "in vivo, rice flat sedge (Cyperus iria)", "settings": "320 g/ha", "summary_of_the_method": "as §1"}, "southern crabgrass [2]": {"tested_on": "southern crabgrass", "experiment": "Test Example 4: herbicidal effect by soil treatment (Table 19, symbol F)", "format": "in vivo, southern crabgrass (Digitaria ciliaris)", "settings": "amount of applied herbicide 320 g/ha", "summary_of_the_method": "(§2)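 Applied as a water-diluted emulsion, the compound was sprayed onto soil covering newly sown seeds. Evaluation came three weeks after application, in a greenhouse held at 25° C. to 30° C.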"}, "barnyard grass [3]": {"tested_on": "barnyard grass", "experiment": "Test Example 4: herbicidal effect by soil treatment (Table 19, symbol H)", "format": "in vivo, barnyard grass (Echinochloa crus-galli)", "settings": "amount of applied herbicide 320 g/ha", "summary_of_the_method": "as §2"}, "wild oat [4]": {"tested_on": "wild oat", "experiment": "Test Example 4: herbicidal effect by soil treatment (Table 19, symbol I)", "format": "in vivo, wild oat (Avena fatua)", "settings": "amount of applied herbicide 320 g/ha", "summary_of_the_method": "as §2"}, "blackgrass [5]": {"tested_on": "blackgrass", "experiment": "Test Example 4: herbicidal effect by soil treatment (Table 19, symbol J)", "format": "in vivo, blackgrass (Alopecurus myosuroides)", "settings": "amount of applied herbicide 320 g/ha", "summary_of_the_method": "as §2"}, "Italian ryegrass [6]": {"tested_on": "Italian ryegrass", "experiment": "Test Example 4: herbicidal effect by soil treatment (Table 19, symbol K)", "format": "in vivo, Italian ryegrass (Lolium multiflorum)", "settings": "amount of applied herbicide 320 g/ha", "summary_of_the_method": "as §2"}, "windgrass [7]": {"tested_on": "windgrass", "experiment": "Test Example 4: herbicidal effect by soil treatment (Table 19, symbol L)", "format": "in vivo, windgrass (Apera spica-venti)", "settings": "amount of applied herbicide 320 g/ha", "summary_of_the_method": "as §2"}, "velvetleaf [8]": {"tested_on": "velvetleaf", "experiment": "Test Example 4: herbicidal effect by soil treatment (Table 19, symbol M)", "format": "in vivo, velvetleaf (Abutilon theophrasti)", "settings": "amount of applied herbicide 320 g/ha", "summary_of_the_method": "as §2"}, "redroot pigweed [9]": {"tested_on": "redroot pigweed", "experiment": "Test Example 4: herbicidal effect by soil treatment (Table 19, symbol N)", "format": "in vivo, redroot pigweed (Amaranthus retroflexus)", "settings": "amount of applied herbicide 320 g/ha", "summary_of_the_method": "as §2"}, "lambsquarters [10]": {"tested_on": "lambsquarters", "experiment": "Test Example 4: herbicidal effect by soil treatment (Table 19, symbol O)", "format": "in vivo, lambsquarters (Chenopodium album)", "settings": "amount of applied herbicide 320 g/ha", "summary_of_the_method": "as §2"}, "chickweed [11]": {"tested_on": "chickweed", "experiment": "Test Example 4: herbicidal effect by soil treatment (Table 19, symbol P)", "format": "in vivo, common chickweed (Stellaria media)", "settings": "amount of applied herbicide 320 g/ha", "summary_of_the_method": "as §2"}, "false cleavers [12]": {"tested_on": "false cleavers", "experiment": "Test Example 4: herbicidal effect by soil treatment (Table 19, symbol Q)", "format": "in vivo, false cleavers (Galium spurium)", "settings": "amount of applied herbicide 320 g/ha", "summary_of_the_method": "as §2"}, "persian speedwell [13]": {"tested_on": "persian speedwell", "experiment": "Test Example 4: herbicidal effect by soil treatment (Table 19, symbol R)", "format": "in vivo, Persian speedwell (Veronica persica)", "settings": "amount of applied herbicide 320 g/ha", "summary_of_the_method": "as §2"}, "southern crabgrass [14]": {"tested_on": "southern crabgrass", "experiment": "Test Example 5: herbicidal effect by foliage application, plastic box (Table 20, symbol F)", "format": "in vivo, southern crabgrass (Digitaria ciliaris)", "settings": "foliage application, 320 g/ha, three weeks after application", "summary_of_the_method": "(§3)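 Sow seeds spot-wise in sterilized diluvial soil; cover with ~1.5 cm soil. Grow 14 days in greenhouse, 25° C. to 30° C. Spray foliage with emulsion diluted to predetermined amount. Rate effect after 3 weeks.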"}, "green foxtail": {"tested_on": "green foxtail", "experiment": "Test Example 5: herbicidal effect by foliage application, plastic box (Table 20, symbol G)", "format": "in vivo, green foxtail (Setaria viridis)", "settings": "foliage application, 320 g/ha, three weeks after application", "summary_of_the_method": "as §3"}, "barnyard grass [15]": {"tested_on": "barnyard grass", "experiment": "Test Example 5: herbicidal effect by foliage application, plastic box (Table 20, symbol H)", "format": "in vivo, barnyard grass (Echinochloa crus-galli)", "settings": "foliage application, 320 g/ha, three weeks after application", "summary_of_the_method": "as §3"}, "wild oat [16]": {"tested_on": "wild oat", "experiment": "Test Example 5: herbicidal effect by foliage application, plastic box (Table 20, symbol I)", "format": "in vivo, wild oat (Avena fatua)", "settings": "foliage application, 320 g/ha, three weeks after application", "summary_of_the_method": "as §3"}, "blackgrass [17]": {"tested_on": "blackgrass", "experiment": "Test Example 5: herbicidal effect by foliage application, plastic box (Table 20, symbol J)", "format": "in vivo, blackgrass (Alopecurus myosuroides)", "settings": "foliage application, 320 g/ha, three weeks after application", "summary_of_the_method": "as §3"}, "Italian ryegrass [18]": {"tested_on": "Italian ryegrass", "experiment": "Test Example 5: herbicidal effect by foliage application, plastic box (Table 20, symbol K)", "format": "in vivo, Italian ryegrass (Lolium multiflorum)", "settings": "foliage application, 320 g/ha, three weeks after application", "summary_of_the_method": "as §3"}, "windgrass [19]": {"tested_on": "windgrass", "experiment": "Test Example 5: herbicidal effect by foliage application, plastic box (Table 20, symbol L)", "format": "in vivo, windgrass (Apera spica-venti)", "settings": "foliage application, 320 g/ha, three weeks after application", "summary_of_the_method": "as §3"}, "velvetleaf [20]": {"tested_on": "velvetleaf", "experiment": "Test Example 5: herbicidal effect by foliage application, plastic box (Table 20, symbol M)", "format": "in vivo, velvetleaf (Abutilon theophrasti)", "settings": "foliage application, 320 g/ha, three weeks after application", "summary_of_the_method": "as §3"}, "redroot pigweed [21]": {"tested_on": "redroot pigweed", "experiment": "Test Example 5: herbicidal effect by foliage application, plastic box (Table 20, symbol N)", "format": "in vivo, redroot pigweed (Amaranthus retroflexus)", "settings": "foliage application, 320 g/ha, three weeks after application", "summary_of_the_method": "as §3"}, "lambsquarters [22]": {"tested_on": "lambsquarters", "experiment": "Test Example 5: herbicidal effect by foliage application, plastic box (Table 20, symbol O)", "format": "in vivo, lambsquarters (Chenopodium album)", "settings": "foliage application, 320 g/ha, three weeks after application", "summary_of_the_method": "as §3"}, "chickweed [23]": {"tested_on": "chickweed", "experiment": "Test Example 5: herbicidal effect by foliage application, plastic box (Table 20, symbol P)", "format": "in vivo, common chickweed (Stellaria media)", "settings": "foliage application, 320 g/ha, three weeks after application", "summary_of_the_method": "as §3"}, "false cleavers [24]": {"tested_on": "false cleavers", "experiment": "Test Example 5: herbicidal effect by foliage application, plastic box (Table 20, symbol Q)", "format": "in vivo, false cleavers (Galium spurium)", "settings": "foliage application, 320 g/ha, three weeks after application", "summary_of_the_method": "as §3"}, "persian speedwell [25]": {"tested_on": "persian speedwell", "experiment": "Test Example 5: herbicidal effect by foliage application, plastic box (Table 20, symbol R)", "format": "in vivo, Persian speedwell (Veronica persica)", "settings": "foliage application, 320 g/ha, three weeks after application", "summary_of_the_method": "as §3"}}, "data": [{"smiles": "CSc1ccc(-c2sc3ccccc3c2-c2c(O)c(C)nn(C)c2=O)cc1", "note": "[1-036]", "values": [{"measurement": "herbicidal effect on H (barnyard grass), rating 0-5", "setting": "barnyard grass [1]", "value": "5 (Herbicidal rate of 90% or more (almost completely withered))"}, {"measurement": "herbicidal effect on D (Chinese sprangletop), rating 0-5", "setting": "Chinese sprangletop", "value": "3 (Herbicidal rate of 40% or more and less than 70%)"}, {"measurement": "herbicidal effect on E (rice flat sedge), rating 0-5", "setting": "rice flat sedge", "value": "5 (Herbicidal rate of 90% or more (almost completely withered))"}, {"measurement": "herbicidal effect rating, F: southern crabgrass", "setting": "southern crabgrass [2]", "value": "0 (Herbicidal rate of 5% or less (almost no effect))"}, {"measurement": "herbicidal effect rating, H: barnyard grass", "setting": "barnyard grass [3]", "value": "4 (Herbicidal rate of 70% or more and less than 90%)"}, {"measurement": "herbicidal effect rating, I: wild oat", "setting": "wild oat [4]", "value": "0 (Herbicidal rate of 5% or less (almost no effect))"}, {"measurement": "herbicidal effect rating, J: blackgrass", "setting": "blackgrass [5]", "value": "0 (Herbicidal rate of 5% or less (almost no effect))"}, {"measurement": "herbicidal effect rating, K: Italian ryegrass", "setting": "Italian ryegrass [6]", "value": "5 (Herbicidal rate of 90% or more (almost completely withered))"}, {"measurement": "herbicidal effect rating, L: windgrass", "setting": "windgrass [7]", "value": "0 (Herbicidal rate of 5% or less (almost no effect))"}, {"measurement": "herbicidal effect rating, M: velvetleaf", "setting": "velvetleaf [8]", "value": "2 (Herbicidal rate of 20% or more and less than 40%)"}, {"measurement": "herbicidal effect rating, N: redroot pigweed", "setting": "redroot pigweed [9]", "value": "5 (Herbicidal rate of 90% or more (almost completely withered))"}, {"measurement": "herbicidal effect rating, O: lambsquarters", "setting": "lambsquarters [10]", "value": "5 (Herbicidal rate of 90% or more (almost completely withered))"}, {"measurement": "herbicidal effect rating, P: chickweed", "setting": "chickweed [11]", "value": "5 (Herbicidal rate of 90% or more (almost completely withered))"}, {"measurement": "herbicidal effect rating, Q: false cleavers", "setting": "false cleavers [12]", "value": "0 (Herbicidal rate of 5% or less (almost no effect))"}, {"measurement": "herbicidal effect rating, R: persian speedwell", "setting": "persian speedwell [13]", "value": "5 (Herbicidal rate of 90% or more (almost completely withered))"}, {"measurement": "herbicidal effect grade, F: southern crabgrass", "setting": "southern crabgrass [14]", "value": "0 (Herbicidal rate of 5% or less (almost no effect))"}, {"measurement": "herbicidal effect grade, G: green foxtail", "setting": "green foxtail", "value": "4 (Herbicidal rate of 70% or more and less than 90%)"}, {"measurement": "herbicidal effect grade, H: barnyard grass", "setting": "barnyard grass [15]", "value": "4 (Herbicidal rate of 70% or more and less than 90%)"}, {"measurement": "herbicidal effect grade, I: wild oat", "setting": "wild oat [16]", "value": "2 (Herbicidal rate of 20% or more and less than 40%)"}, {"measurement": "herbicidal effect grade, J: blackgrass", "setting": "blackgrass [17]", "value": "4 (Herbicidal rate of 70% or more and less than 90%)"}, {"measurement": "herbicidal effect grade, K: Italian ryegrass", "setting": "Italian ryegrass [18]", "value": "4 (Herbicidal rate of 70% or more and less than 90%)"}, {"measurement": "herbicidal effect grade, L: windgrass", "setting": "windgrass [19]", "value": "3 (Herbicidal rate of 40% or more and less than 70%)"}, {"measurement": "herbicidal effect grade, M: velvetleaf", "setting": "velvetleaf [20]", "value": "5 (Herbicidal rate of 90% or more (almost completely withered))"}, {"measurement": "herbicidal effect grade, N: redroot pigweed", "setting": "redroot pigweed [21]", "value": "5 (Herbicidal rate of 90% or more (almost completely withered))"}, {"measurement": "herbicidal effect grade, O: lambsquarters", "setting": "lambsquarters [22]", "value": "4 (Herbicidal rate of 70% or more and less than 90%)"}, {"measurement": "herbicidal effect grade, P: chickweed", "setting": "chickweed [23]", "value": "5 (Herbicidal rate of 90% or more (almost completely withered))"}, {"measurement": "herbicidal effect grade, Q: false cleavers", "setting": "false cleavers [24]", "value": "4 (Herbicidal rate of 70% or more and less than 90%)"}, {"measurement": "herbicidal effect grade, R: persian speedwell", "setting": "persian speedwell [25]", "value": "5 (Herbicidal rate of 90% or more (almost completely withered))"}]}]}
